Measurements as given in PubChem BioAssay AID1259408 (Genetic Toxicology Data Bank (GENE-TOX), 2018).
Active and inactive are the calls of the source. How the calls were made is not given here.

System: GENE-TOX genotoxicity assays, various organisms and cells
Test: GENE-TOX mutagenicity studies
[1] = Species/Cell Type: Drosophila melanogaster, Assay Type: Sex-linked recessive lethal gene mutation, Assay Code: SRL+, Evaluation Type: Evaluation A (Pre-1980)

SMILES: CS(=O)(=O)OC[C@@H](O)[C@@H](O)[C@H](O)[C@H](O)COS(C)(=O)=O
- mutagenic call [1]: active; positive

SMILES: O=C(O)c1ccc2c([N+](=O)[O-])cccc2n1
- mutagenic call (Species/Cell Type: Salmonella typhimurium (one or more of the five standard strains: TA98, TA100, TA1535, TA1537, and TA1538), Assay Type: Histidine reverse gene mutation, Ames assay, Assay Code: SAL+, Evaluation Type: Evaluation A (Pre-1980)): active; positive

SMILES: O=P1(N(CCCl)CCCl)NCCCO1 (stereo not given)
- mutagenic call (Species/Cell Type: Arabidopsis species, Assay Type: Gene mutation, Assay Code: ARM-, Evaluation Type: Evaluation A (Pre-1980)): inactive; negative
- mutagenic call (Species/Cell Type: Chinese hamster ovary (CHO) cells, Assay Type: Forward gene mutation at the HPRT locus, Assay Code: CHO+*, Activation: With metabolic activation, Evaluation Type: Evaluation B (Post-1980)): active; positive
- mutagenic call [1]: active; positive
- mutagenic call (Species/Cell Type: Escherichia coli WP2, Assay Type: Tryptophan reverse gene mutation, Assay Code: WP2+, Evaluation Type: Evaluation A (Pre-1980)): active; positive
- mutagenic call (Species/Cell Type: Escherichia coli WP2 UVRA, Assay Type: Tryptophan reverse gene mutation, Assay Code: WPU+, Evaluation Type: Evaluation A (Pre-1980)): active; positive
- mutagenic call (Species/Cell Type: Escherichia coli polA (W3110 vs P3478), Assay Type: Rec-assay, DNA effects (bacterial DNA repair), Assay Code: RE2+, Evaluation Type: Evaluation A (Pre-1980)): active; positive
- mutagenic call (Species/Cell Type: F1 mouse, Sex: Male, Assay Type: Sperm morphology, Assay Code: SPF+, Evaluation Type: Evaluation A (Pre-1980)): active; positive
- mutagenic call (Species/Cell Type: Fischer rat embryo (RLV/1706) cells, Assay Type: Cell transformation, viral enhanced, Assay Code: CTR+, Evaluation Type: Evaluation A (Pre-1980)): active; positive
- mutagenic call (Species/Cell Type: Human bone marrow, Assay Type: Chromosome aberrations in vivo, Assay Code: CY5+, Evaluation Type: Evaluation A (Pre-1980)): active; positive
- mutagenic call (Species/Cell Type: Human cell culture, Assay Type: Chromosome aberrations in vitro, Assay Code: CYZ+, Evaluation Type: Evaluation A (Pre-1980)): active; positive
- mutagenic call (Species/Cell Type: Human diploid fibroblasts, Assay Type: Unscheduled DNA synthesis (UDS) in vitro, DNA effects, Assay Code: UDHT, Evaluation Type: Evaluation A (Pre-1980)): no conclusion
- mutagenic call (Species/Cell Type: Human lymphocytes or leukocytes, Assay Type: Chromosome aberrations in vitro, Assay Code: CY7+D, Dose Response: With dose response, Evaluation Type: Evaluation A (Pre-1980)): active; positive
- mutagenic call (Species/Cell Type: Human lymphocytes or leukocytes, Assay Type: Chromosome aberrations in vivo, Assay Code: CY8+, Evaluation Type: Evaluation A (Pre-1980)): active; positive
- mutagenic call (Species/Cell Type: Human lymphocytes, Assay Type: Sister-chromatid exchange (SCE) in vitro, Assay Code: SCL+D, Dose Response: With dose response, Evaluation Type: Evaluation B (Post-1980)): active; positive
- mutagenic call (Species/Cell Type: Human lymphocytes, Assay Type: Sister-chromatid exchange (SCE) in vitro, Assay Code: SCLT, Evaluation Type: Evaluation A (Pre-1980)): no conclusion
- mutagenic call (Species/Cell Type: Human lymphocytes, Assay Type: Sister-chromatid exchange (SCE) in vivo, Assay Code: SCY+, Evaluation Type: Evaluation B (Post-1980)): active; positive
- mutagenic call (Species/Cell Type: Human, Assay Type: Sister-chromatid exchange (SCE) in vitro, Assay Code: SC1+D, Dose Response: With dose response, Evaluation Type: Evaluation B (Post-1980)): active; positive
- mutagenic call (Species/Cell Type: Human, Sex: Male, Assay Type: Sperm morphology, Assay Code: SPH+, Evaluation Type: Evaluation A (Pre-1980)): active; positive
- mutagenic call (Species/Cell Type: Mammalian germ cells, Sex: Male, Assay Type: Chromosome aberrations in vivo, Assay Code: CY9+, Evaluation Type: Evaluation A (Pre-1980)): active; positive
- mutagenic call (Species/Cell Type: Mammalian oocytes or early embryo, Assay Type: Chromosome aberrations in vivo, Assay Code: CYO+D, Dose Response: With dose response, Evaluation Type: Evaluation A (Pre-1980)): active; positive
- mutagenic call (Species/Cell Type: Mammalian polychromatic erythrocytes, Assay Type: Micronucleus test, chromosome aberrations, Assay Code: MNT+, Evaluation Type: Evaluation A (Pre-1980)): active; positive
- mutagenic call (Species/Cell Type: Mouse (BALB/c-3T3) cells, Assay Type: Cell transformation, Assay Code: CTB-, Evaluation Type: Evaluation A (Pre-1980)): inactive; negative
- mutagenic call (Species/Cell Type: Mouse (C3H/10T1/2) cells, Assay Type: Cell transformation, Assay Code: CTH+D*, Activation: With metabolic activation, Dose Response: With dose response, Evaluation Type: Evaluation A (Pre-1980)): active; positive
- mutagenic call (Species/Cell Type: Mouse germ cells, Sex: Male, Assay Type: Unscheduled DNA synthesis (UDS) in vivo, DNA effects, Assay Code: UDT+, Evaluation Type: Evaluation A (Pre-1980)): active; positive
- mutagenic call (Species/Cell Type: Mouse lymphoma (L5178Y) cells, Assay Type: Forward gene mutation at the thymidine kinase (TK) locus, chromosome aberrations, Assay Code: L51+*, Activation: With metabolic activation, Evaluation Type: Evaluation A (Pre-1980)): active; positive
- mutagenic call (Species/Cell Type: Mouse, Sex: Female, Assay Type: Spot test, gene mutation, Assay Code: MST+, Evaluation Type: Evaluation A (Pre-1980)): active; positive
- mutagenic call (Species/Cell Type: Mouse, Sex: Male, Assay Type: Heritable translocation test, chromosome aberrations, Assay Code: HTT+, Evaluation Type: Evaluation A (Pre-1980)): active; positive
- mutagenic call (Species/Cell Type: Mouse, Sex: Male, Assay Type: Specific locus test, gene mutation, Assay Code: SLT+, Evaluation Type: Evaluation A (Pre-1980)): active; positive
- mutagenic call (Species/Cell Type: Mouse, Sex: Male, Assay Type: Sperm morphology, Assay Code: SPI+, Evaluation Type: Evaluation A (Pre-1980)): active; positive
- mutagenic call (Species/Cell Type: Nonhuman bone marrow, Assay Type: Chromosome aberrations, in vivo, Assay Code: CY#+D, Dose Response: With dose response, Evaluation Type: Evaluation A (Pre-1980)): active; positive
- call (Species/Cell Type: Nonhuman, Assay Type: In vivo carcinogenicity studies, Assay Code: CCG+, Evaluation Type: Evaluation A (Pre-1980)): active; positive
- mutagenic call (Species/Cell Type: Nonhuman, Assay Type: Sister-chromatid exchange (SCE) in vitro, Assay Code: SC2+D, Dose Response: With dose response, Evaluation Type: Evaluation A (Pre-1980)): active; positive
- mutagenic call (Species/Cell Type: Nonhuman, Assay Type: Sister-chromatid exchange (SCE) in vivo, Assay Code: SC3+D, Dose Response: With dose response, Evaluation Type: Evaluation A (Pre-1980)): active; positive
- mutagenic call (Species/Cell Type: Rabbit, Sex: Male, Assay Type: Sperm morphology, Assay Code: SPRT, Evaluation Type: Evaluation A (Pre-1980)): no conclusion
- mutagenic call (Species/Cell Type: Rat, Sex: Male, Assay Type: Sperm morphology, Assay Code: SPA+, Evaluation Type: Evaluation A (Pre-1980)): active; positive
- mutagenic call (Species/Cell Type: Rodents, Sex: Male, Assay Type: Dominant lethal test, Assay Code: DLT+D, Dose Response: With dose response, Evaluation Type: Evaluation A (Pre-1980)): active; positive
- mutagenic call (Species/Cell Type: Saccharomyces cerevisiae, Assay Type: Forward gene mutation, Assay Code: YEF+, Evaluation Type: Evaluation A (Pre-1980)): active; positive
- mutagenic call (Species/Cell Type: Saccharomyces cerevisiae, Assay Type: Mitotic recombination or gene conversion, Assay Code: YEC+*, Activation: With metabolic activation, Evaluation Type: Evaluation A (Pre-1980)): active; positive
- mutagenic call (Species/Cell Type: Saccharomyces cerevisiae, Assay Type: Mitotic recombination or gene conversion, Assay Code: YEH+, Evaluation Type: Evaluation A (Pre-1980)): active; positive
- mutagenic call (Species/Cell Type: Saccharomyces cerevisiae, Assay Type: Reverse gene mutation, Assay Code: YER+, Evaluation Type: Evaluation A (Pre-1980)): active; positive
- mutagenic call (Species/Cell Type: Salmonella typhimurium (one or more of the five standard strains: TA98, TA100, TA1535, TA1537, and TA1538), Assay Type: Histidine reverse gene mutation, Ames assay, Assay Code: SAL+*, Activation: With metabolic activation, Evaluation Type: Evaluation A (Pre-1980)): active; positive
- mutagenic call (Species/Cell Type: Salmonella typhimurium, Escherichia coli, Serratia marcesens, human lymphoid cells, Saccharomyces cerevisiae, Chinese ha, Assay Type: Forward and reverse gene mutation, mitotic recombination and gene conversion, DNA effects, chromosome aberrations, host-, Assay Code: HM6+, Evaluation Type: Evaluation A (Pre-1980)): active; positive
- mutagenic call (Species/Cell Type: Salmonella typhimurium, Saccharomyces cerevisiae, human leukocytes and diploid fibroblasts, Assay Type: Forward and reverse gene mutation, mitotic recombination and gene conversion, DNA effects, body fluid assay, Assay Code: BFJ+, Evaluation Type: Evaluation A (Pre-1980)): active; positive
